Data reported in patent publication US7838288B2, “Modulators of odorant receptors” (Duke University, priority 2004, dated 2010).
“Also recorded” adds a separate entry of the source. Values belong to the compound of their own block, whether it stands above or below them.

Columns and labels:
[1] = system: olfactory neurons S6 and S79; details: previous studies (Malnic 1999); cited from earlier work
OR-S6/S79 = assay: CRE-luciferase reporter gene assay, OR-S6/S79; type: cell-based, mouse; details: Hana3A cells
Method: Four ORs (S6/79, S18, S46 and S50) previously assayed using other techniques (see, e.g., Malnic, B., et al. (1999) Cell 96, 713-723; herein incorporated by reference in its entirety) were tested against an assay panel of aliphatic alcohols, aldehydes and acids and some other odorants. Additionally, five “orphan” class I ORs (MOR23-1, MOR31-4, MOR31-6, MOR32-5 and MOR32-11) whose cognate ligands were unknown were tested. At a suprathreshold concentration of 100 uM, all these ORs were odorant selective, responding to only a small subset of the odorants tested (see FIG. 11A). This specificity was retained at lower, more physiologically relevant concentrations. Many of these ORs responded to odorants present in micromolar concentrations. The cell-surface expression of these ORs by living-cell immunofluorescence were evaluated. Some ORs (S18, MOR31-4, MOR31-6 and MOR32-5) were strongly expressed while other ORs (S6, S50, MOR23-1, MOR32-11) were weakly expressed (see FIG. 12). The present invention is not limited to a particular mechanism. Indeed, an understanding of the mechanism is not necessary to practice the present invention. […] Finally, two additional orphan class II ORs, MOR203-1 and olfr62, were tested against a panel of 139 odorants. […] Olfr62 responded to coumarine and piperonal (see FIG. 11C). […] When parental 293T cells for these ORs were used in this luciferase assay, little or no response to the odorants was observed. The present invention is not limited to a particular mechanism. Indeed, an understanding of the mechanism is not necessary to practice the present invention.
An expression system has been established that permits rapid identification of ligands for ORs. This system was tested with twelve ORs. Four of the tested ORs (S6/S79, S18, S46, and S50) were expressed in single olfactory neurons responding to aliphatic odorants (see, e.g., Malnic, B., et al. (1999) Cell 96, 713-723; herein incorporated by reference in its entirety). The response profiles of OR-S50, but not that of OR-S18 agreed with the previous report (see, e.g., Malnic, B., et al. (1999) Cell 96, 713-723; herein incorporated by reference in its entirety). […] In experiments conducted during the course of the present invention, OR-S6/S79 responded to nonanedioic acid but not to heptanoic acid or octanoic acid. The present invention is not limited to a particular mechanism. […] When multiple single olfactory neurons that expressed the same OR were recorded against the same set of odorants using calcium imaging, their response profiles were similar but different (see, e.g., Bozza, T., et al. (2002) J Neurosci 22, 3033-3043; herein incorporated by reference in its entirety).
(§1) Dual-Glo system (Promega) for luciferase assay was used. […] Luminescence was measured using Wallac Victor 1420 (Perkin-Elmer). […]

OR-S46 = assay: CRE-luciferase reporter gene assay, OR-S46; type: cell-based, mouse; details: Hana3A cells
Excerpt: To facilitate analysis of odorant-OR interactions, 293T cell lines were established which stably express REEP1, RTP1, RTP2 and Gαolf, the G protein alpha subunit that couples to OR (see, e.g., Belluscio, L., et al. (1998) Neuron 20, 69-81; Jones, D. T., and Reed, R. R. (1989). Science 244, 790-795; each herein incorporated by reference in their entireties). To establish such cells, linearized expression vectors containing mouse REEP1, RTP1, RTP2 and Gαolf ORFs were transfected into 293T cells with PGK-Pac (puromycin resistant gene) (see, e.g., Watanabe, S., et al. (1995) Biochem Biophys Res Commun 213, 130-137; herein incorporated by reference in its entirety). […] Enhanced cell-surface expression was observed when OREG or other ORs were transfected in Hana3A cells and immunostained (see FIG. 10). […]
Four ORs (S6/79, S18, S46 and S50) previously assayed using other techniques (see, e.g., Malnic, B., et al. (1999) Cell 96, 713-723; herein incorporated by reference in its entirety) were tested against an assay panel of aliphatic alcohols, aldehydes and acids and some other odorants. […] The cell-surface expression of these ORs by living-cell immunofluorescence were evaluated. […]
as §1

MOR23-1 = assay: CRE-luciferase reporter gene assay, MOR23-1; type: cell-based, mouse; details: Hana3A cells
Method: (§2) Four ORs (S6/79, S18, S46 and S50) previously assayed using other techniques (see, e.g., Malnic, B., et al. (1999) Cell 96, 713-723; herein incorporated by reference in its entirety) were tested against an assay panel of aliphatic alcohols, aldehydes and acids and some other odorants. Additionally, five “orphan” class I ORs (MOR23-1, MOR31-4, MOR31-6, MOR32-5 and MOR32-11) whose cognate ligands were unknown were tested. At a suprathreshold concentration of 100 uM, all these ORs were odorant selective, responding to only a small subset of the odorants tested (see FIG. 11A). This specificity was retained at lower, more physiologically relevant concentrations. Many of these ORs responded to odorants present in micromolar concentrations. The cell-surface expression of these ORs by living-cell immunofluorescence were evaluated. Some ORs (S18, MOR31-4, MOR31-6 and MOR32-5) were strongly expressed while other ORs (S6, S50, MOR23-1, MOR32-11) were weakly expressed (see FIG. 12). […]
(§3) Dual-Glo system (Promega) for luciferase assay was used. […] Luminescence was measured using Wallac Victor 1420 (Perkin-Elmer). Normalized luciferase activity was calculated as [Luc (N)-Luc (0)]/RL (N), where Luc (N)=Luminescent count of a certain well, Luc (0)=Luminescent count without odorant for each OR, and RL (N)=Luminescent count of Renilla Luciferase of each well. […]

MOR203-1 = assay: CRE-luciferase reporter gene assay, MOR203-1; type: cell-based, mouse; details: Hana3A cells
Method: as §2, §3

MOR31-4 = assay: CRE-luciferase reporter gene assay, MOR31-4; type: cell-based, mouse; details: Hana3A cells
Method: as §2, §3

OR-S50 = assay: CRE-luciferase reporter gene assay, OR-S50; type: cell-based, mouse
Excerpt: (§4) To facilitate analysis of odorant-OR interactions, 293T cell lines were established which stably express REEP1, RTP1, RTP2 and Gαolf, the G protein alpha subunit that couples to OR (see, e.g., Belluscio, L., et al. (1998) Neuron 20, 69-81; Jones, D. T., and Reed, R. R. (1989). Science 244, 790-795; each herein incorporated by reference in their entireties). To establish such cells, linearized expression vectors containing mouse REEP1, RTP1, RTP2 and Gαolf ORFs were transfected into 293T cells with PGK-Pac (puromycin resistant gene) (see, e.g., Watanabe, S., et al. (1995) Biochem Biophys Res Commun 213, 130-137; herein incorporated by reference in its entirety). […] Enhanced cell-surface expression was observed when OREG or other ORs were transfected in Hana3A cells and immunostained (see FIG. 10). […] Expression of Gαolf alone in 293T cells had little or no effect on OR activation using this assay.
as §3, with “used. CRE-Luciferase (Stratagene) was used to measure the receptor activities.” for “used.”

[2] = target: T1, mouse odorant receptor OREG (Mus musculus, UniProt Q920P2); assay: CRE-luciferase reporter gene assay, OREG; type: cell-based
T1 construct: expressed in transfected cells; host or cells: 293T cells (with or without co-transfected REEP1/RTP1/RTP2) and Hana3A cells (293T stably expressing mouse REEP1, RTP1, RTP2, Galpha-olf)
T1 sequence (Q920P2 1-313): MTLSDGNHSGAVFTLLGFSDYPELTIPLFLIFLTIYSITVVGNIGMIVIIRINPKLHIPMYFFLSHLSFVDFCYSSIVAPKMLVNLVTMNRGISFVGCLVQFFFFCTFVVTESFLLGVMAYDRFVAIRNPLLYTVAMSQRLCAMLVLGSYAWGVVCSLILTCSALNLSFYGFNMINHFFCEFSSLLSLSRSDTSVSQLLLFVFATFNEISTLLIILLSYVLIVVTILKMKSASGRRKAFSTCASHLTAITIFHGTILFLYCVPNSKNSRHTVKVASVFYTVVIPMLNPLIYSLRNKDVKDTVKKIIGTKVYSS
Excerpt: Poor odorant evoked signaling activity in heterologous cell culture systems expressing ORs has been attributed to the poor cell surface expression of ORs. The identification of REEP and/or RTP allowed a direct assessment of this issue. A luciferase reporter gene assay was employed in which a cAMP responsive element (CRE) mediated luciferase gene expression (see FIG. 8A). Because OR activation leads to an increase in cAMP, activation of the mouse odorant receptor OREG by its ligand eugenol was measured in the presence and absence of REEP and/or RTP (see, e.g., Kajiya, K., et al. (2001) J Neurosci 21, 6018-6025; Touhara, K., et al., (1999) Proc Natl Acad Sci USA 96, 4040-4045; each herein incorporated by reference in their entireties). As reported previously, eugenol increased levels of OREG dependent luciferase activity (see, e.g., Katada, S., et al. (2003) Biochem Biophys Res Commun 305, 964-969; herein incorporated by reference in its entirety).
as §4
Dual-Glo system (Promega) for luciferase assay was used. CRE-Luciferase (Stratagene) was used to measure the receptor activities. Renilla luciferase driven by constitutively active SV40 promoter (pRL-SV40: Promega) was used as an internal control. Cells were plated on poly-D-lysine coated 96 well plates (BIOCOAT, Beckton Dickinson). After 8 hours (for experiments shown in FIGS. 8B and 8C) or 12 hours (for experiments shown in FIG. 8D and FIG. 11) after transfection, the medium was replaced with CD293 chemically defined medium (Invitrogen) and the plates were incubated for one hour at 37 degrees C. The medium was replaced with 50 ul of odorant solutions dissolved in CD293 and incubated for 10 hours (for experiments shown in FIGS. 8B and 8C) or 4 hours (for experiments shown in FIG. 8D and FIG. 11) at 37 degrees C. The manufacture's protocol for measuring luciferase and Renilla luciferase activities was followed. Luminescence was measured using Wallac Victor 1420 (Perkin-Elmer). Normalized luciferase activity was calculated as [Luc (N)-Luc (0)]/RL (N), where Luc (N)=Luminescent count of a certain well, Luc (0)=Luminescent count without odorant for each OR, and RL (N)=Luminescent count of Renilla Luciferase of each well. For cAMP assays, cells were plated onto 24-well plate. […]. Prism software (Graphpad) was used for data analysis.

OREG = target: T2, OREG (Mus musculus, UniProt Q920P2); assay: cAMP assay, OREG; type: cell-based; details: OREG transfected; Hana3A cells vs 293T cells expressing Gαolf
T2 construct: expressed in transfected cells; host or cells: Hana3A cells, or HEK293T cells co-transfected with Golf
T2 sequence (Q920P2 1-313): T1 sequence (Q920P2 1-313)
Method: In order to confirm the increased OR function in the presence of REEP1, RTP1 and RTP2, the amount of cAMP upon ligand stimulation was measured using 293T cells expressing Gαolf and Hana3A cells. […] In contrast, when the β2 adrenergic receptor was expressed and isoproterenol was used, no significant differences in cAMP production were observed (see FIG. 8E). The present invention is not limited to a particular mechanism. Indeed, an understanding of the mechanism is not necessary to practice the present invention. Nonetheless, this further supports a specific role of the accessory proteins in functional OR expression.
Dual-Glo system (Promega) for luciferase assay was used. CRE-Luciferase (Stratagene) was used to measure the receptor activities. Renilla luciferase driven by constitutively active SV40 promoter (pRL-SV40: Promega) was used as an internal control. Cells were plated on poly-D-lysine coated 96 well plates (BIOCOAT, Beckton Dickinson). […] Luminescence was measured using Wallac Victor 1420 (Perkin-Elmer). Normalized luciferase activity was calculated as [Luc (N)-Luc (0)]/RL (N), where Luc (N)=Luminescent count of a certain well, Luc (0)=Luminescent count without odorant for each OR, and RL (N)=Luminescent count of Renilla Luciferase of each well. […]

response of OR-S6/S79 to odorant (luciferase) (OR-S6/S79): not
SMILES: CCCCCCCC(=O)O [octanoic acid]
response of single olfactory neurons S6 and S79 to odorant [1]: only the olfactory neuron S79 responded

response of S46 to odorant (luciferase) (OR-S46): responded
response of MOR23-1 to odorant (luciferase) (MOR23-1): responded
response of MOR203-1 to odorant (luciferase) (MOR203-1): responded to high concentrations
response of MOR31-4 to odorant (luciferase) (MOR31-4): responded
SMILES: CCCCCCCCC(=O)O [nonanoic acid, Nonanoic acid]

response of OR-S6/S79 to odorant (luciferase) (OR-S6/S79): responded
luciferase response (OR-S50; OR-S50 in 293T cells): did not produce a luciferase response
luciferase activity (OR-S50; OR-S50 in Hana3A cells): robust luciferase activity
SMILES: O=C(O)CCCCCCCC(=O)O [nonanedioic acid]
response of single olfactory neurons S6 and S79 to odorant [1]: both responded

SMILES: C=CCc1ccc(O)c(OC)c1 [eugenol, reference compound]
luciferase induction ([2]; HA-OREG in 293T cells): Little luciferase induction was observed
luciferase activity ([2]; HA-OREG in Hana3A cells): an enhancement in luciferase activity was observed
OREG dependent luciferase activity ([2]; odorant applied, OREG in 293T cells with or without REEP and/or RTP): increased
cAMP production (OREG): Enhanced cAMP production; also recorded: more cAMP was produced

response of OR-S6/S79 to odorant (luciferase) (OR-S6/S79): not
SMILES: CCCCCCC(=O)O [heptanoic acid, Heptanoic acid]
response of single olfactory neurons S6 and S79 to odorant [1]: only the olfactory neuron S79 responded
